From patent US12428415B2, “Matriptase 2 inhibitors and uses thereof” (Disc Medicine, Inc., priority 2018, dated 2025)

Target: T1, Human Recombinant Matriptase 2 (Homo sapiens, UniProt Q8IU80)
T1 construct: purchased Enzo Life Sciences (an in-house preparation was also used) ALX-201-752-1
T1 sequence (Q8IU80 1-811): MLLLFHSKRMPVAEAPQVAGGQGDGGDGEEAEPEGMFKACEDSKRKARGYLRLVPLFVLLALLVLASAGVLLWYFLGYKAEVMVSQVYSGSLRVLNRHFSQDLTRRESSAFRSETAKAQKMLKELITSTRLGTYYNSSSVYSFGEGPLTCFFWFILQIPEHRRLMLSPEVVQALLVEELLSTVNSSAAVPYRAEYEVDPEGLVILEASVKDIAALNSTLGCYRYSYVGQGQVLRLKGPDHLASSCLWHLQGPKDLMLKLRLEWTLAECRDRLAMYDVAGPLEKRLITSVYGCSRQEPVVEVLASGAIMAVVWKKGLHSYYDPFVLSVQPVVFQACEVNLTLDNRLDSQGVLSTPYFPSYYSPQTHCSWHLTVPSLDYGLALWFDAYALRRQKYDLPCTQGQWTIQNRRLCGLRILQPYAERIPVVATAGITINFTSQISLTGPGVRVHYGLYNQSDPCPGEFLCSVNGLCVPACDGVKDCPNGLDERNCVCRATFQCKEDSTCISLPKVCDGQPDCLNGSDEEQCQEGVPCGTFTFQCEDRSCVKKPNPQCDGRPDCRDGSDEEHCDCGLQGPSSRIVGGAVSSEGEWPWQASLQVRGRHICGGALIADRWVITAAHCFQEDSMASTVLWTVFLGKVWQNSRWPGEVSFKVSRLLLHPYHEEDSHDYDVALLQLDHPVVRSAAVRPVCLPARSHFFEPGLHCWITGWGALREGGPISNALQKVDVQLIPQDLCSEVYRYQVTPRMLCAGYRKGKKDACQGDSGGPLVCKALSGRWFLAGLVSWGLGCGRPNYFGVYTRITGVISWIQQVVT
Test: Matriptase 2 fluorescence based inhibition assay, Method A (100 mM TRIS pH 9, 1 mg/mL BSA)
Type: biochemical
Conditions: at 1 uM; Assay Used = A; read-out: Mar-2 % inhibition at 1 uM
In short: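 Enzyme (7 nM commercial or 15 nM in-house) preincubated 30 min with compound in 100 mM TRIS pH 9, 1 mg/mL BSA, 1% DMSO at 25° C. Boc-Gln-Ala-Arg-AMC substrate at 100 μM; fluorescence (Ex 360/Em 480 nm) read 60 min later. Screened at 1 and 10 μM; IC50 from variable-slope sigmoidal fit.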

Row | SMILES | inhibition at 1 µM [%]
1 | N=C(N)c1ccc2cc(C(=O)N[C@H]3CC[C@H](N)CC3)n(Cc3cccc(C(=O)NCCC(=O)O)c3)c2c1 [Compound I-259, 3-(3-((2-(((1r,4r)-4-Amiocyclohexyl)carbamoyl)-6-carbamimidoyl-1H-indol-1-yl)methyl)benzamido)propanoic Acid] | 25 to 50
2 | N=C(N)c1ccc2cc(C(=O)NC3CCC(F)(F)CC3)n(Cc3cccc(NC(=O)CCN)c3)c2c1 [Compound I-260, 1-(3-(3-Aminopropanamido)benzyl)-6-carbamimidoyl-N-(4,4-difluorocyclohexyl)-1H-indole-2-carboxamide] | 0 to 25
3 | CC(C)CCn1c(C(=O)N2CCC(F)CC2)cc2ccc(C(=N)N)cc21 [Compound I-270, 2-(4-Fluoropiperidine-1-carbonyl)-1-isopentyl-1H-indole-6-carboximidamide] | 0 to 25
4 | CC(C)CCn1c(C(=O)N2CCC(F)(F)CC2)cc2ccc(C(=N)N)cc21 [Compound I-271] | 0 to 25
5 | CC(C)CCn1c(C(=O)N2CC[C@H](F)C2)cc2ccc(C(=N)N)cc21 [Compound I-272] | 0 to 25
6 | CC(C)CCn1c(C(=O)N2CCC(F)(F)C2)cc2ccc(C(=N)N)cc21 [Compound I-273] | 0 to 25
7 | N=C(N)c1ccc2cc(C(=O)N3CCC(CCN)CC3)n(CCCN)c2c1 [Compound I-274] | 25 to 50
8 | N=C(N)c1ccc2cc(C(=O)N3CCC(CCN)CC3)n(CCC(N)=O)c2c1 [Compound I-276] | 25 to 50
9 | N=C(N)c1ccc2cc(C(=O)N3CC[C@H](F)C3)n(Cc3ccc(C(F)(F)F)cc3)c2c1 [Compound I-279] | 0 to 25
10 | CCOC(=O)CCCC1CCN(C(=O)c2cc3ccc(C(=N)N)cc3n2Cc2ccc(C(F)(F)F)cc2)CC1 [Compound I-281] | 0 to 25
11 | N=C(N)c1ccc2cc(C(=O)N3CCC(F)(F)C3)n(Cc3ccc(C(F)(F)F)cc3)c2c1 [Compound I-285] | 0 to 25
12 | N=C(N)c1ccc2cc(C(=O)N3CCC(CCOCCO)CC3)n(Cc3ccc(C(F)(F)F)cc3)c2c1 [Compound I-287] | 0 to 25
13 | N=C(N)c1ccc2cc(C(=O)N3CCC(CCN)CC3)n(Cc3ccc(OC(F)(F)F)cc3)c2c1 [Compound I-288] | 0 to 25
14 | N=C(N)c1ccc2cc(C(=O)N3CCC(F)(F)CC3)n(Cc3ccc(OC(F)(F)F)cc3)c2c1 [Compound I-290] | 0 to 25
15 | N=C(N)c1ccc2cc(C(=O)N3CCC(CF)CC3)n(Cc3ccc(OC(F)(F)F)cc3)c2c1 [Compound I-291] | 0 to 25
16 | CC(C)c1ccc(Cn2c(C(=O)N3CCC(F)(F)C3)cc3ccc(C(=N)N)cc32)cc1 [Compound I-294] | 0 to 25
17 | CC(C)(C)c1ccc(Cn2c(C(=O)N3CC[C@H](F)C3)cc3ccc(C(=N)N)cc32)cc1 [Compound I-298] | 25 to 50
18 | N=C(N)c1ccc2cc(C(=O)N3CCC(CCN)CC3)n(CCc3ccccc3)c2c1 [Compound I-299] | 25 to 50
19 | N=C(N)c1ccc2cc(C(=O)N3CC[C@@H](N)C3)n(CCc3ccccc3)c2c1 [Compound I-300] | 25 to 50
20 | N=C(N)c1ccc2cc(C(=O)N3CCC(CCN)CC3)n(CCc3ccc(F)cc3)c2c1 [Compound I-301] | 25 to 50
21 | COc1ccc(CCn2c(C(=O)N3CCC(CCN)CC3)cc3ccc(C(=N)N)cc32)cc1 [Compound I-302] | 25 to 50

Results, then the compound that gave them:

Row | inhibition at 1 µM [%] | SMILES
22 | 50 to 75 | N=C(N)c1ccc2cc(C(=O)N[C@H]3CC[C@H](N)CC3)n(Cc3cccc(NC(=O)CCN)c3)c2c1 [Compound I-257, N-((1r,4r)-4-aminocyclohexyl)-1-(3-(3-aminopropanamido)benzyl)-6-carbamimidoyl-1H-indole-2-carboxamide]
23 | 50 to 75 | N=C(N)c1ccc2cc(C(=O)N[C@H]3CC[C@H](N)CC3)n(Cc3cccc(NC(=O)C4CNC4)c3)c2c1 [Compound I-258, N-((1r,4r)-4-Aminocyclohexyl)-1-(3-(azetidine-3-carboxamido)benzyl)-6-carbamimidoyl-1H-indole-2-carboxamide]
24 | 25 to 50 | N=C(N)c1ccc2cc(C(=O)N[C@H]3CC[C@H](N)CC3)n(Cc3ccc(N)cc3)c2c1 [Compound I-261, 1-(4-Aminobenzyl)-N-((1r,4r)-4-aminocyclohexyl)-6-carbamimidoyl-1H-indole-2-carboxamide]
25 | 25 to 50 | N=C(N)c1ccc2cc(C(=O)N[C@H]3CC[C@H](N)CC3)n(Cc3ccc(NC(=O)CCN)cc3)c2c1 [Compound I-262, N-((1r,4r)-4-Aminocyclohexyl)-1-(4-(3-aminopropanamido)benzyl)-6-carbamimidoyl-1H-indole-2-carboxamide]
26 | 0 to 25 | N=C(N)c1ccc2cc(C(=O)NC3CC=CCC3)n(Cc3ccc(NC(=O)CCN)cc3)c2c1 (stereo not drawn) [Compound I-264, 1-(4-(3-Aminopropanamido)benzyl)-6-carbamimidoyl-N-(cyclohex-3-en-1-yl)-1H-indole-2-carboxamide]
27 | 0 to 25 | N=C(N)c1ccc2cc(C(=O)Nc3nc4ccccc4s3)n(Cc3ccc(C(N)=O)cc3)c2c1 [Compound I-265]
28 | 0 to 25 | Cc1csc(NC(=O)c2cc3ccc(C(=N)N)cc3n2Cc2ccc(C(N)=O)cc2)n1 [Compound I-266]
29 | 0 to 25 | NC(=O)c1ccc(Cn2c(C(=O)Nc3cccc(N4CCCC4)c3)cc3ccc(/C(N)=N/O)cc32)cc1 [Compound I-267, 1-(4-Carbamoylbenzyl)-6-(N′-hydroxycarbamimidoyl)-N-(3-(pyrrolidin-1-yl)phenyl)-1H-indole-2-carboxamide]
30 | 0 to 25 | NC(=O)c1ccc(Cn2c(C(=O)Nc3ccc(N4CCCC4)cc3)cc3ccc(/C(N)=N/O)cc32)cc1 [Compound I-268, 1-(4-Carbamoylbenzyl)-6-(N′-hydroxycarbamimidoyl)-N-(4-(pyrrolidin-1-yl)phenyl)-1H-indole-2-carboxamide]
31 | 0 to 25 | NC(=O)c1ccc(Cn2c(C(=O)Nc3cc(N4CCCC4)ccn3)cc3ccc(/C(N)=N/O)cc32)cc1 [Compound I-269, 1-(4-Carbamoylbenzyl)-6-(N′-hydroxycarbamimidoyl)-N-(4-(pyrrolidin-1-yl)pyridin-2-yl)-1H-indole-2-carboxamide]
32 | 0 to 25 | N=C(N)c1ccc2cc(C(=O)N3CCC(CCN)CC3)n(Cc3ccc(C(F)(F)F)cc3)c2c1 [Compound I-278]
33 | 0 to 25 | N=C(N)c1ccc2cc(C(=O)N3CCC(CCO)CC3)n(Cc3ccc(C(F)(F)F)cc3)c2c1 [Compound I-280]
34 | 0 to 25 | N=C(N)c1ccc2cc(C(=O)N3CCC(F)CC3)n(Cc3ccc(C(F)(F)F)cc3)c2c1 [Compound I-282]
35 | 0 to 25 | N=C(N)c1ccc2cc(C(=O)N3CCC(F)(F)CC3)n(Cc3ccc(C(F)(F)F)cc3)c2c1 [Compound I-283]
36 | 0 to 25 | N=C(N)c1ccc2cc(C(=O)N3CCC(CCNC(=O)c4ccccn4)CC3)n(Cc3ccc(C(F)(F)F)cc3)c2c1 [Compound I-286]
37 | 0 to 25 | N=C(N)c1ccc2cc(C(=O)N3CCC(F)CC3)n(Cc3ccc(OC(F)(F)F)cc3)c2c1 [Compound I-289]
38 | 0 to 25 | CC(C)c1ccc(Cn2c(C(=O)N3CC[C@H](F)C3)cc3ccc(C(=N)N)cc32)cc1 [Compound I-293]
39 | 0 to 25 | CC(C)c1ccc(Cn2c(C(=O)N3CCC(F)CC3)cc3ccc(C(=N)N)cc32)cc1 [Compound I-295]
40 | 0 to 25 | CC(C)c1ccc(Cn2c(C(=O)N3CCC(F)(F)CC3)cc3ccc(C(=N)N)cc32)cc1 [Compound I-296]
41 | 0 to 25 | CC(C)c1ccc(Cn2c(C(=O)N3CCC(CF)CC3)cc3ccc(C(=N)N)cc32)cc1 [Compound I-297]
42 | 0 to 25 | N=C(N)c1ccc2cc(C(=O)N3CCC(F)(F)CC3)n(Cc3ccc(-c4ccccc4)cc3)c2c1 [Compound I-306]
43 | 0 to 25 | N=C(N)c1ccc2cc(C(=O)N3CCCC(F)(F)C3)n(Cc3ccc(-c4ccccc4)cc3)c2c1 [Compound I-307]
44 | 0 to 25 | N=C(N)c1ccc2cc(C(=O)N3CCC(CF)CC3)n(Cc3ccc(-c4ccccc4)cc3)c2c1 [Compound I-308]
45 | 0 to 25 | N=C(N)c1ccc2cc(C(=O)N3CC[C@H](F)C3)n(Cc3ccc(-c4ccccc4)cc3)c2c1 [Compound I-309]
46 | 0 to 25 | N=C(N)c1ccc2cc(C(=O)N3CCC(F)(F)C3)n(Cc3ccc(-c4ccccc4)cc3)c2c1 [Compound I-310]
47 | 0 to 25 | N=C(N)c1ccc2cc(C(=O)N3CCc4ccccc4C3)n(Cc3ccc(-c4ccccc4)cc3)c2c1 [Compound I-311]
48 | 0 to 25 | N=C(N)c1ccc2cc(C(=O)N3CC[C@@H](F)C3)n(Cc3ccc(Oc4ccccc4)cc3)c2c1 [Compound I-313]
